The values that follow are results of earlier work, collected in patent publication US6716459B2, “Composition for inhibiting increase of blood sugar level or lowering blood sugar level” (priority 1998, dated 2004).

For this data set, the system named is Ehrlich Ascites Tumour Cells. To be noted: in vitro, Chem. Pharm. Bull. 41(12) 2129-2131 (1993).

As for `C[C@H]1[C@H](C)CC[C@]2(C(=O)O)CC[C@]3(C)C(=CC[C@@H]4[C@@]5(C)C[C@@H](O)[C@H](O)C(C)(C)[C@@H]5CC[C@]43C)[C@H]12` [corosolic acid], the “activity on the mobility of grape sugar” value was “activates the mobility of grape sugar”.
